Experimental data published in ChEMBL document CHEMBL1201862, “PubChem BioAssay data set” (2004).
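Where inhibition never reached the appropriate level, the endpoint shown equals the highest concentration tested. Otherwise, values were interpolated linearly from a five-concentration, 48-hour dose response in 96-well plates. The concentration for 50% growth inhibition is given as GI50.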 Calls of active or inactive are those of the source. Cut-off read from the data, not from the text of the source: active = GI50 up to about 1.1 µM and inactive = higher.

Key:
Test in all cases: DTP human tumour cell line panel, 48 h
BT-549 = system: BT-549
CAKI-1 = system: CAKI-1
CCRF-CEM = system: CCRF-CEM
EKVX = system: EKVX
IGROV-1 = system: IGROV-1
KM12 = system: KM12
LOX IMVI = system: LOX IMVI
M14 = system: M14
MOLT-4 = system: MOLT-4
NCI-H226 = system: NCI-H226
NCI-H460 = system: NCI-H460
NCI/ADR-RES = system: NCI/ADR-RES
OVCAR-4 = system: OVCAR-4
OVCAR-5 = system: OVCAR-5
RPMI-8226 = system: RPMI-8226
SK-OV-3 = system: SK-OV-3
SNB-75 = system: SNB-75
T47D = system: T47D
TK-10 = system: TK-10

Measured: GI50

CC1(C)CCCCCCCCCC(C)(CCCO)C1=O (stereo not drawn)
inactive: BT-549 17.7 µM | CAKI-1 17.7 µM | CCRF-CEM 28.9 µM | EKVX 15.8 µM | IGROV-1 17.4 µM | KM12 18.4 µM | LOX IMVI 17.6 µM | M14 14.3 µM | MOLT-4 14.1 µM | NCI-H226 16.1 µM | NCI-H460 18.4 µM | NCI/ADR-RES 16.6 µM | OVCAR-4 15.5 µM | OVCAR-5 15.5 µM | RPMI-8226 26.5 µM | SK-OV-3 17.4 µM | SNB-75 17.9 µM | T47D 15.6 µM

O=C(c1ccc(/N=C/c2ccccc2O)cc1)c1ccc(/N=C/c2ccccc2O)cc1
inactive: BT-549 > 100 µM | CAKI-1 > 100 µM | EKVX > 100 µM | IGROV-1 > 100 µM | KM12 > 100 µM | LOX IMVI > 100 µM | M14 > 100 µM | MOLT-4 > 100 µM | NCI-H226 > 100 µM | NCI-H460 > 100 µM | NCI/ADR-RES > 100 µM | OVCAR-4 > 100 µM | OVCAR-5 > 100 µM | RPMI-8226 > 100 µM | SK-OV-3 > 100 µM | SNB-75 > 100 µM | T47D 62.8 µM | TK-10 > 100 µM

C(=N\N=C1NCCN1)/c1ccc2ccccc2c1
inactive: BT-549 5.53 µM | CAKI-1 9.02 µM | CCRF-CEM 8.59 µM | EKVX 12.6 µM | IGROV-1 9.95 µM | KM12 14.9 µM | LOX IMVI 12.7 µM | MOLT-4 10.2 µM | NCI-H226 21 µM | NCI-H460 14.4 µM | NCI/ADR-RES 11.8 µM | OVCAR-4 18.1 µM | OVCAR-5 18.7 µM | RPMI-8226 12 µM | SK-OV-3 10.8 µM | SNB-75 29.5 µM | T47D 23.1 µM | TK-10 12.4 µM

O=C(O)c1ccc([N+](=O)[O-])c(P(=O)(O)O)c1
inactive: BT-549 > 100 µM | CAKI-1 > 100 µM | EKVX > 100 µM | IGROV-1 > 100 µM | KM12 > 100 µM | LOX IMVI > 100 µM | M14 > 100 µM | MOLT-4 > 100 µM | NCI-H226 > 100 µM | NCI-H460 > 100 µM | NCI/ADR-RES > 100 µM | OVCAR-4 > 100 µM | OVCAR-5 > 100 µM | RPMI-8226 > 100 µM | SK-OV-3 > 100 µM | T47D > 100 µM | TK-10 > 100 µM

Cc1cccc2c1C/C(=C\c1cccc(C)c1C(=O)O)C2=O
inactive: BT-549 > 100 µM | CAKI-1 > 100 µM | CCRF-CEM 84.9 µM | EKVX > 100 µM | IGROV-1 > 100 µM | KM12 > 100 µM | LOX IMVI > 100 µM | M14 > 100 µM | MOLT-4 61.1 µM | NCI-H226 > 100 µM | NCI-H460 > 100 µM | NCI/ADR-RES > 100 µM | OVCAR-4 > 100 µM | OVCAR-5 > 100 µM | RPMI-8226 46.6 µM | SNB-75 > 100 µM | T47D > 100 µM | TK-10 > 100 µM

NC(Cc1c[nH]c2cc([N+](=O)[O-])ccc12)C(=O)O (stereo not drawn)
inactive: BT-549 > 100 µM | CAKI-1 > 100 µM | EKVX > 100 µM | IGROV-1 57.4 µM | KM12 > 100 µM | LOX IMVI > 100 µM | M14 > 100 µM | MOLT-4 > 100 µM | NCI-H226 33.7 µM | NCI-H460 > 100 µM | NCI/ADR-RES > 100 µM | OVCAR-4 > 100 µM | OVCAR-5 > 100 µM | RPMI-8226 > 100 µM | SK-OV-3 > 100 µM | SNB-75 > 100 µM | T47D > 100 µM | TK-10 > 100 µM

COc1ccc2c(=O)c3cc([N+](=O)[O-])ccc3n(C)c2c1
inactive: BT-549 > 100 µM | CAKI-1 > 100 µM | CCRF-CEM > 100 µM | EKVX 6.37 µM | IGROV-1 > 100 µM | KM12 > 100 µM | LOX IMVI > 100 µM | M14 > 100 µM | MOLT-4 > 100 µM | NCI-H226 > 100 µM | NCI-H460 > 100 µM | NCI/ADR-RES > 100 µM | OVCAR-4 > 100 µM | OVCAR-5 > 100 µM | RPMI-8226 > 100 µM | SNB-75 > 100 µM | T47D > 100 µM | TK-10 > 100 µM

COc1cc2c(cc1OCCCC(=O)Nc1cc(C(=O)Nc3cc(C(=O)NCCCN(C)C)n(C)n3)n(C)n1)N=CC1CCCN1C2=O (stereo not drawn)
inactive: BT-549 12.1 µM | CAKI-1 16.8 µM | CCRF-CEM 12.5 µM | EKVX 34 µM | IGROV-1 12.8 µM | KM12 34.9 µM | LOX IMVI 20.7 µM | M14 16 µM | MOLT-4 4.79 µM | NCI-H226 44.4 µM | NCI-H460 14.4 µM | NCI/ADR-RES 20 µM | OVCAR-4 13.3 µM | OVCAR-5 19.4 µM | RPMI-8226 18.5 µM | SK-OV-3 57.3 µM | T47D 14.2 µM | TK-10 19.7 µM
